Experiments:
[1] = system: HBV replication in HepAD38 cells; test: Anti-HBV activity in HepAD38 cells, extracellular HBV DNA by QPCR; assay type: cell-based, HBV (genotype D, serotype ayw); details: Hepatitis B virus, HePAD38, 168 h, read-out: Anti-HBV EC50, HepAD38 cells, extracellular HBV DNA by QPCR, 7 days of incubation
Outline: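 Seven-day compound exposure (30 μM down to 10 nM, half-log steps) after tetracycline withdrawal induced HBV replication in HepAD38 cells. Extracellular viral DNA measured by QPCR (copies/mL via standard curve), normalised to DMSO wells; EC50 from 4-parameter non-linear regression.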

[2] = In vitro cytotoxicity, MTT cell viability assay in HepG2 cells; assay type: cell-based; details: human, Cytotoxicity CC50
Outline: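 Parental HepG2 cells in EMEM + 10% FBS were exposed to compounds (8 half-log dilutions, 30 μM to 1.0 nM) for 7 days at 37 °C, 5% CO2. MTT was then added for 3-4 h, formazan dissolved in DMSO and absorbance read at 492 nm; CC50 came from 4-parameter fits against vehicle controls.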

Row | Compound | EC50 [1] [µM] | CC50 at 7 days [2] [µM]
1 | Cn1ccc(C(=O)Nc2ccc(F)c(Cl)c2)c1C(F)(F)C(=O)NC1(C#N)CC1 [Example 147, N-(3-chloro-4-fluorophenyl)-2-(2-((1-cyanocyclopropyl)amino)-1,1-difluoro-2-oxoethyl)-1-methyl-1H-pyrrole-3-carboxamide] | 5 to 30 | > 30
2 | Cc1cc(NC(=O)c2ccc(Cl)c(C(F)(F)C(=O)N3CCC(B(O)O)CC3)c2)ccc1F [Example 148, (1-(2-(2-chloro-5-((4-fluoro-3-methylphenyl)carbamoyl)phenyl)-2,2-difluoroacetyl)piperidin-4-yl)boronic acid] | < 5 | > 30
3 | Cc1cc(NC(=O)c2ccc(F)c(C(F)(F)C(=O)NCB3O[C@@H]4C[C@@H]5C[C@@H](C5(C)C)[C@]4(C)O3)c2)ccc1F [Example 149, 3-(1,1-difluoro-2-oxo-2-((((3aS,4S,6S,7aR)-3a,5,5-trimethylhexahydro-4,6-methanobenzo[d][1,3,2]dioxaborol-2-yl)methyl)amino)ethyl)-4-fluoro-N-(4-fluoro-3-methylphenyl)benzamide] | < 5 | 5 to 30
4 | Cc1cc(NC(=O)c2ccc(F)c(C(F)(F)C(=O)N[C@H]3CCOB3O)c2)ccc1F [Example 150, (R)-3-(1,1-difluoro-2-((2-hydroxy-1,2-oxaborolan-3-yl)amino)-2-oxoethyl)-4-fluoro-N-(4-fluoro-3-methylphenyl)benzamide] | < 5 | > 30
5 | Cc1cc(NC(=O)c2ccc(F)c(C(Cl)(Cl)C(=O)N3CC=C(B(O)O)CC3)c2)ccc1F [Example 151, (1-(2,2-dichloro-2-(2-fluoro-5-((4-fluoro-3-methylphenyl)carbamoyl)phenyl)acetyl)-1,2,3,6-tetrahydropyridin-4-yl)boronic acid] | < 5 | > 30
6 | Cc1cc(NC(=O)c2ccc(F)c(C(F)(F)C(=O)N3CCC(B(O)O)CC3)c2)ccc1F [Example 152, (1-(2,2-difluoro-2-(2-fluoro-5-((4-fluoro-3-methylphenyl)carbamoyl)phenyl)acetyl)piperidin-4-yl)boronic acid] | < 5 | 5 to 30
7 | Cc1cc(NC(=O)c2ccc(F)c(C(F)(F)C(=O)N3CCC[C@H]3B(O)O)c2)ccc1F [Example 153, (R)-(1-(2,2-difluoro-2-(2-fluoro-5-((4-fluoro-3-methylphenyl)carbamoyl)phenyl)acetyl)pyrrolidin-2-yl)boronic acid] | < 5 | > 30
8 | Cc1cc(NC(=O)c2ccc(F)c(C(F)(F)C(=O)N3CC=C(B(O)O)CC3)c2)ccc1F [Example 154, (1-(2,2-difluoro-2-(2-fluoro-5-((4-fluoro-3-methylphenyl)carbamoyl)phenyl)acetyl)-1,2,3,6-tetrahydropyridin-4-yl)boronic acid] | < 5 | 5 to 30
9 | Cc1cc(NC(=O)c2ccc(F)c(C(F)(F)C(=O)NCB(O)O)c2)ccc1F [Example 156, ((2,2-difluoro-2-(2-fluoro-5-((4-fluoro-3-methylphenyl)carbamoyl)phenyl)acetamido)methyl)boronic acid] | 5 to 30 | 5 to 30
10 | Cc1cc(NC(=O)c2cc(C(F)(F)C(=O)NC(C)(C)C)cs2)ccc1F [Example 157, 4-(2-(tert-butylamino)-1,1-difluoro-2-oxoethyl)-N-(4-fluoro-3-methylphenyl)thiophene-2-carboxamide] | 5 to 30 | 5 to 30
11 | Cc1cc(NC(=O)c2cc(Br)c(C(F)(F)C(=O)NC(C)(C)C)s2)ccc1F [Example 158, 4-bromo-5-(2-(tert-butylamino)-1,1-difluoro-2-oxoethyl)-N-(4-fluoro-3-methylphenyl)thiophene-2-carboxamide] | 5 to 30 | 5 to 30
12 | Cc1cc(NC(=O)c2ccc(F)c(C(F)(F)C(=O)N3CCC(O)CC3)c2)cc(F)c1F [Example 159, 3-(1,1-difluoro-2-(4-hydroxypiperidin-1-yl)-2-oxoethyl)-N-(3,4-difluoro-5-methylphenyl)-4-fluorobenzamide] | < 5 | 5 to 30
13 | Cc1cc(NC(=O)c2ccc(F)c(C(F)(F)C(=O)N3CCC(O)CC3)c2)cc(F)n1 [Example 160, 3-(1,1-difluoro-2-(4-hydroxypiperidin-1-yl)-2-oxoethyl)-4-fluoro-N-(2-fluoro-6-methylpyridin-4-yl)benzamide] | 5 to 30 | 5 to 30
14 | Cc1cc(NC(=O)c2ccc(F)c(C(F)(F)C(=O)N3CC(F)(F)CC3C(=O)O)c2)ccc1F (centres unmarked) [Example 161, 1-(2,2-difluoro-2-(2-fluoro-5-((4-fluoro-3-methylphenyl)carbamoyl)phenyl)acetyl)-4,4-difluoropyrrolidine-2-carboxylic acid] | 5 to 30 | > 30
15 | Cc1cc(NC(=O)c2ccc(F)c(C(F)(F)C(=O)N3CCC(O)C(F)C3)c2)ccc1F (centres unmarked) [Example 162, 3-(1,1-difluoro-2-(3-fluoro-4-hydroxypiperidin-1-yl)-2-oxoethyl)-4-fluoro-N-(4-fluoro-3-methylphenyl)benzamide] | < 5 | 5 to 30
16 | Cc1cc(NC(=O)c2ccc(F)c(C(F)(F)C(=O)N3[C@@H]4CC[C@H]3C[C@H](O)C4)c2)ccc1F [Example 163, 3-(1,1-difluoro-2-((1R,3s,5S)-3-hydroxy-8-azabicyclo[3.2.1]octan-8-yl)-2-oxoethyl)-4-fluoro-N-(4-fluoro-3-methylphenyl)benzamide] | < 5 | 5 to 30
17 | Cc1cc(NC(=O)c2ccc(F)c(C(F)(F)C(=O)N3CCC(C(N)=O)CC3)c2)ccc1F [Example 164, 1-(2,2-difluoro-2-(2-fluoro-5-((4-fluoro-3-methylphenyl)carbamoyl)phenyl)acetyl)piperidine-4-carboxamide] | < 5 | > 30
18 | Cc1cc(NC(=O)c2cc(C(F)(F)C(=O)NC(C)(C)C)n(C)n2)ccc1F [Example 165, 5-(2-(tert-butylamino)-1,1-difluoro-2-oxoethyl)-N-(4-fluoro-3-methylphenyl)-1-methyl-1H-pyrazole-3-carboxamide] | 5 to 30 | > 30
19 | Cc1cc(NC(=O)c2nn(C)cc2C(F)(F)C(=O)NC(C)(C)C)ccc1F [Example 166, 4-(2-(tert-butylamino)-1,1-difluoro-2-oxoethyl)-N-(4-fluoro-3-methylphenyl)-1-methyl-1H-pyrazole-3-carboxamide] | 5 to 30 | > 30
20 | O=C(Nc1ccnc(Cl)c1)c1ccc(F)c(C(F)(F)C(=O)N2CCC(O)CC2)c1 [Example 167, N-(2-chloropyridin-4-yl)-3-(1,1-difluoro-2-(4-hydroxypiperidin-1-yl)-2-oxoethyl)-4-fluorobenzamide] | 5 to 30 | 5 to 30
21 | Cc1cc(NC(=O)c2cccc(C(F)(F)C(=O)N3CCC(O)CC3)c2Cl)ccc1F [Example 168, 2-chloro-3-(1,1-difluoro-2-(4-hydroxypiperidin-1-yl)-2-oxoethyl)-N-(4-fluoro-3-methylphenyl)benzamide] | < 5 | 5 to 30
22 | O=C(Nc1ccc(F)c(Cl)c1)c1ccc(F)c(C(F)(F)C(=O)N2CCC(O)C(F)(F)C2)c1 (centres unmarked) [Example 169, N-(3-chloro-4-fluorophenyl)-3-(2-(3,3-difluoro-4-hydroxypiperidin-1-yl)-1,1-difluoro-2-oxoethyl)-4-fluorobenzamide] | < 5 | 5 to 30
23 | O=C(Nc1ccc(F)c(Cl)c1)c1ccc(F)c(C(F)(F)C(=O)N2[C@@H]3CC[C@H]2C[C@@H](O)C3)c1 [Example 170, N-(3-chloro-4-fluorophenyl)-3-(1,1-difluoro-2-((1R,3r,5S)-3-hydroxy-8-azabicyclo[3.2.1]octan-8-yl)-2-oxoethyl)-4-fluorobenzamide] | < 5 | 5 to 30
24 | O=C(Nc1ccc(F)c(Cl)c1)c1ccc(F)c(C(F)(F)C(=O)N2[C@@H]3CC[C@H]2C[C@H](O)C3)c1 [Example 171, N-(3-chloro-4-fluorophenyl)-3-(1,1-difluoro-2-((1R,3s,5S)-3-hydroxy-8-azabicyclo[3.2.1]octan-8-yl)-2-oxoethyl)-4-fluorobenzamide] | < 5 | 5 to 30
25 | O=C(Nc1ccc(F)c(Cl)c1)c1ccc(F)c(C(F)(F)C(=O)N2CCC(O)(CO)CC2)c1 [Example 172, N-(3-chloro-4-fluorophenyl)-3-(1,1-difluoro-2-(4-hydroxy-4-(hydroxymethyl)piperidin-1-yl)-2-oxoethyl)-4-fluorobenzamide] | < 5 | 5 to 30
26 | O=C(Nc1cc(F)c(F)c(F)c1)c1ccc(F)c(C(F)(F)C(=O)N2[C@@H]3CC[C@H]2C[C@@H](O)C3)c1 [Example 173] | < 5 | 5 to 30
27 | O=C(Nc1cc(F)c(F)c(F)c1)c1ccc(F)c(C(F)(F)C(=O)N2CCC(O)(CO)CC2)c1 [Example 174, 3-(1,1-difluoro-2-(4-hydroxy-4-(hydroxymethyl)piperidin-1-yl)-2-oxoethyl)-4-fluoro-N-(3,4,5-trifluorophenyl)benzamide] | < 5 | 5 to 30
28 | O=C(Nc1ccc(F)c(Br)c1)c1ccc(F)c(C(F)(F)C(=O)N2CCC(O)C(F)(F)C2)c1 (centres unmarked) [Example 175, N-(3-bromo-4-fluorophenyl)-3-(2-(3,3-difluoro-4-hydroxypiperidin-1-yl)-1,1-difluoro-2-oxoethyl)-4-fluorobenzamide] | < 5 | 5 to 30
